Reference: BindingDB's records for doi:10.1021/jm00090a009 (Takeda Chemical Industries, 1992)

Target: Thromboxane A2 receptor (Cavia porcellus)
Experiment: Compound was evaluated for its ability to inhibit specific binding of [3H]U-46619 to Thromboxane A2/ Prostaglandin H2 receptor in guinea pig platelet membrane

IC50 [nM]	SMILES
30	Cc1c(C)c(C(CCCCCC(=O)O)c2ccc(F)cc2)c(O)c(C)c1C=O (configuration not stated)
1400	Cc1c(C)c(O)c(C(=CCCCCC(=O)O)c2ccc(F)cc2)c(C)c1O
